From patent publication US20240215577A1, “FUNGICIDAL PYRIDONES” (FMC Corporation, priority 2021, published 2024)

Legend:
Type in all cases: in vivo
Conditions in all cases: 100 = 100% disease control, 0 = no control
Phakopsora pachyrhizi = test: Test D: Asian soybean rust, preventive spray on soybean seedlings
From the text: (§1) General protocol for preparing test suspensions for Tests A-F: the test compounds were first dissolved in acetone in an amount equal to 3% of the final volume and then suspended at the desired concentration (in ppm) in acetone and purified water (50/50 mix by volume) containing 250 ppm of the surfactant PEG400 (polyhydric alcohol esters). The resulting test suspensions were then used in Tests A-F.
(§2) The test solution was sprayed to the point of run-off on soybean seedlings. The following day the seedlings were inoculated with a spore suspension of Phakopsora pachyrhizi (the causal agent of Asian soybean rust) and incubated in a saturated atmosphere at 22° C. for 24 h and then moved to a growth chamber at 22° C. for 8 days, after which time visual disease ratings were made.
(§3) A rating of 100 indicates 100% disease control and a rating of 0 indicates no disease control (relative to the controls). A dash (-) indicates the compound was not tested.

[1] = system: Blumeria graminis f. sp. tritici; test: Test C: wheat powdery mildew, preventive spray on wheat seedlings
From the text: as §1
The test suspension was sprayed to the point of run-off on wheat seedlings. The following day the seedlings were inoculated with a spore dust of Blumeria graminis f. sp. tritici, (also known as Eysiphe graminis f. sp. tritici, the causal agent of wheat powdery mildew) and incubated in a growth chamber at 20° C. for 8 days, after which time visual disease ratings were made.
as §3

Alternaria solani = test: Test F: tomato early blight, preventive spray on tomato seedlings
From the text: as §1
(§4) The test suspension was sprayed to the point of run-off on tomato seedlings. The following day the seedlings were inoculated with a spore suspension of Alternaria solani (the causal agent of tomato early blight) and incubated in a saturated atmosphere at 27° C. for 48 h, and then moved to a growth chamber at 20° C. for 3 days, after which time visual disease ratings were made.
as §3

[2] = system: Puccinia recondita f. sp. tritici; test: Test B: wheat leaf rust, preventive spray on wheat seedlings
From the text: as §1
as §2, with “on wheat” for “on soybean”, “of Puccinia recondita f. sp. tritici” for “of Phakopsora pachyrhizi”, “of wheat leaf” for “of Asian soybean”, “at 20°” for “at 22°”, “24 h,” for “24 h”, “for 7” for “for 8”
as §3

Botrytis cinerea = test: Test E: tomato Botrytis, preventive spray on tomato seedlings
From the text: as §1
as §4, with “Botrytis cinerea” for “Alternaria solani”, “Botrytis)” for “early blight)”, “20°” for “27°”, “24°” for “20°”
as §3

Zymoseptoria tritici = test: Test A: wheat leaf blotch, preventive spray on wheat seedlings
From the text: as §1
The test solution was sprayed to the point of run-off on wheat seedlings. The following day the seedlings were inoculated with a spore suspension of Zymoseptoria tritici (the causal agent of wheat leaf blotch) and incubated in a saturated atmosphere at 24° C. for 48 h, and then moved to a growth chamber at 20° C. for 17 days, after which time disease ratings were made.
as §3

[3] = Phakopsora pachyrhizi, 216 h, 50 ppm, read-out: Test D disease control rating
[4] = Blumeria graminis, 50 ppm, read-out: Test C disease control rating
[5] = Alternaria solani, 50 ppm, read-out: Test F disease control rating
[6] = Puccinia recondita, 50 ppm, read-out: Test B disease control rating
[7] = Botrytis cinerea, 50 ppm, read-out: Test E disease control rating
[8] = Zymoseptoria tritici, 50 ppm, read-out: Test A disease control rating

| SMILES | Test D disease control rating (Phakopsora pachyrhizi; 50 ppm) [%] | Test C disease control rating ([1]; 50 ppm) [%] | Test F disease control rating (Alternaria solani; 50 ppm) [%] | Test B disease control rating ([2]; 50 ppm) [%] | Test E disease control rating (Botrytis cinerea; 50 ppm) [%] | Test A disease control rating (Zymoseptoria tritici; 50 ppm) [%] | also measured |
| --- | --- | --- | --- | --- | --- | --- | --- |
| Cn1cc(-c2cc(F)ccc2Cl)c(-c2ccc(F)cc2Cl)c(Cl)c1=O [Compound 1] | 0 | 0 | 46 | 100 | 98 | 100 | – |
| Cn1cc(-c2cc(F)ccc2Cl)c(-c2ccc(F)cc2Cl)c(I)c1=O [Compound 2] | 0 | 0 | 33 | 98 | 91 | 100 | – |
| COc1cc(OC)cc(-c2cn(C)c(=O)c(Cl)c2-c2ccc(F)cc2Cl)c1 [Compound 3, 3-chloro-4-(2-chloro-4-fluorophenyl)-5-(3,5-dimethoxyphenyl)-1-methyl-2(11)-pyridinone] | 65 | 0 | 100 | 100 | 100 | 99 | – |
| COc1cc(OC)c(Cl)c(-c2cn(C)c(=O)c(Cl)c2-c2ccc(F)cc2Cl)c1 [Compound 4, 3-chloro-5-(2-chloro-3,5-dimethoxyphenyl)-4-(2-chloro-4-fluorophenyl)-1-methyl-2(1H)-pyridinone] | – | – | – | – | – | – | pest or weed control at 50 ppm (Phakopsora pachyrhizi; [3]): 99%; pest or weed control at 50 ppm [1, 4]: 98%; pest or weed control at 50 ppm (Alternaria solani; [5]): 100%; pest or weed control at 50 ppm [2, 6]: 100%; pest or weed control at 50 ppm (Botrytis cinerea; [7]): 100%; pest or weed control at 50 ppm (Zymoseptoria tritici; [8]): 100% |
| COc1cc(-c2cn(C)c(=O)c(Cl)c2-c2ccc(F)cc2Cl)cc(OC)c1Cl [Compound 5, 3-chloro-5-(4-chloro-3,5-dimethoxyphenyl)-4-(2-chloro-4-fluorophenyl)-1-methyl-2(1H)-pyridinone] | – | – | – | – | – | – | pest or weed control at 250 ppm (Phakopsora pachyrhizi; Phakopsora pachyrhizi, 216 h, 250 ppm, read-out: Test D disease control rating): 78%; pest or weed control at 250 ppm ([1]; Blumeria graminis, 250 ppm, read-out: Test C disease control rating): 0%; pest or weed control at 250 ppm (Alternaria solani; Alternaria solani, 250 ppm, read-out: Test F disease control rating): 99%; pest or weed control at 250 ppm ([2]; Puccinia recondita, 250 ppm, read-out: Test B disease control rating): 100%; pest or weed control at 250 ppm (Botrytis cinerea; Botrytis cinerea, 250 ppm, read-out: Test E disease control rating): 98%; pest or weed control at 250 ppm (Zymoseptoria tritici; Zymoseptoria tritici, 250 ppm, read-out: Test A disease control rating): 100% |
| COc1cccc(-c2c(-c3ccc(F)cc3Cl)c(C#N)c(=O)n(C)c2C)c1 [Compound 6] | – | – | – | – | – | – | Test D disease control rating (Phakopsora pachyrhizi; 250 ppm): 0%; Test C disease control rating ([1]; 250 ppm): 89%; Test F disease control rating (Alternaria solani; 250 ppm): 0%; Test B disease control rating ([2]; 250 ppm): 0%; Test E disease control rating (Botrytis cinerea; 250 ppm): 0%; Test A disease control rating (Zymoseptoria tritici; 250 ppm): 0% |
| COc1cccc(-c2cn(C)c(=O)c(Cl)c2-c2ccc(F)cc2F)c1 [Compound 8] | – | – | – | – | – | – | Test D disease control rating (Phakopsora pachyrhizi; 250 ppm): 81%; Test C disease control rating ([1]; 250 ppm): 98%; Test F disease control rating (Alternaria solani; 250 ppm): 99%; Test B disease control rating ([2]; 250 ppm): 100%; Test E disease control rating (Botrytis cinerea; 250 ppm): 99%; Test A disease control rating (Zymoseptoria tritici; 250 ppm): 100% |
| CCCOc1ccc(Cl)c(-c2cn(C)c(=O)c(Cl)c2-c2ccc(F)cc2F)c1 [Compound 10] | 0 | 79 | 0 | 99 | 94 | 99 | – |
| Cn1cc(-c2ccccc2)c(-c2c(F)cccc2F)c(Cl)c1=O [Compound 11] | 0 | 0 | 94 | 80 | 97 | 99 | – |
| COc1cc(OC)cc(-c2cn(C)c(=O)c(C)c2-c2ccc(F)cc2Cl)c1 [Compound 12] | 83 | 40 | 99 | 99 | 92 | 100 | – |
| Cn1cc(-c2cc(F)ccc2Cl)c(-c2ccc(F)cc2Cl)c(C#N)c1=O [Compound 14] | 0 | 0 | 0 | 100 | 96 | 100 | – |
| Cn1cc(-c2ccccc2Cl)c(-c2ccc(F)cc2Cl)c(Cl)c1=O [Compound 15] | 0 | 69 | 0 | 100 | 88 | 100 | – |
| Cn1cc(-c2ccc(F)cc2Cl)c(-c2c(F)cccc2F)c(Cl)c1=O [Compound 16] | 68 | 0 | 31 | 97 | 96 | 100 | – |
| Cn1cc(-c2ccc(F)cc2)c(-c2c(F)cccc2F)c(Cl)c1=O [Compound 17] | 75 | 0 | 100 | 99 | 98 | 100 | – |
| Cc1c(-c2ccc(F)cc2Cl)c(-c2cc(F)ccc2Cl)cn(C)c1=O [Compound 18] | 96 | 94 | 99 | 100 | 98 | 100 | – |
| COc1cc(OC)cc(-c2cn(OC)c(=O)c(Cl)c2-c2ccc(F)cc2Cl)c1 [Compound 19, 3-chloro-4-(2-chloro-4-fluorophenyl)-5-(3,5-dimethoxyphenyl)-1-methoxy-2(1H)-pyridinone] | – | – | – | – | – | – | pest or weed control at 50 ppm (Phakopsora pachyrhizi; [3]): 11%; pest or weed control at 50 ppm [1, 4]: 0%; pest or weed control at 50 ppm (Alternaria solani; [5]): 0%; pest or weed control at 50 ppm [2, 6]: 99%; pest or weed control at 50 ppm (Botrytis cinerea; [7]): 98%; pest or weed control at 50 ppm (Zymoseptoria tritici; [8]): 58% |
| COc1cc(-c2cn(C)c(=O)c(Cl)c2-c2ccc(F)cc2F)ccc1Br [Compound 21] | 0 | 0 | 91 | 96 | 94 | 70 | – |
| COc1cc(OC)c(Cl)c(-c2cn(OC)c(=O)c(Cl)c2-c2ccc(F)cc2Cl)c1 [Compound 22, 3-chloro-4-(2-chloro-4-fluorophenyl)-5-(2-chloro-3,5-dimethoxyphenyl)-1-methoxy-2(1H)-pyridinone] | – | – | – | – | – | – | pest or weed control at 50 ppm (Phakopsora pachyrhizi; [3]): 97%; pest or weed control at 50 ppm [1, 4]: 76%; pest or weed control at 50 ppm (Alternaria solani; [5]): 99%; pest or weed control at 50 ppm [2, 6]: 100%; pest or weed control at 50 ppm (Botrytis cinerea; [7]): 98%; pest or weed control at 50 ppm (Zymoseptoria tritici; [8]): 99% |
| CCc1c(-c2ccc(F)cc2Cl)c(-c2cc(F)ccc2Cl)cn(C)c1=O [Compound 23] | 0 | 99 | 83 | 100 | 69 | 100 | – |
| COc1ccc(Cl)c(-c2cn(C)c(=O)c(Cl)c2-c2ccccc2Br)c1 [Compound 67] | 73 | 56 | 33 | – | 91 | 99 | – |
